In PMC10003747, “A Novel Homodimer Peptide–Drug Conjugate Improves the Efficacy of HER2-Positive Breast Cancer Therapy” (International Journal of Molecular Sciences, 2023):

What was measured:
[1] = Stability of the PDC in human serum/plasma by HPLC; type: in vitro ADME; conditions: human serum (methods: human plasma), 37 °C
Source text: HP (calcd Mw: 3183.7) was successfully synthesized by using solid-phase peptide synthesis (SPPS), and the peptides were cleaved and purified by HPLC (Figure S2) afterward and verified by using electrospray ionization mass spectrometry examinations (Figure 2a). […] The mass charge ratio (m/z) obtained by the experiment is consistent with the theoretical m/z. […] Polyethylene glycol (PEG) has been widely used to modify small molecules to slow renal clearance and to increase the half-life. It is essential that the PDC be maintained in a steady circulation to prevent pre-release of cytotoxic payloads, resulting in systemic toxicity. […] To assess plasma stability, the PDC was incubated with human serum at 37 °C from 0 to 48 h, and aliquots were taken at different time points and analyzed by using HPLC. […]
To quantify the amount of DOX released from the PDC, 1 mg of the substance was dissolved in 2 mL of ultra-pure water and placed into a dialysis bag (MWCO 1000 Da). […] The samples were analyzed for released DOX concentration using a fluorescence spectrophotometer at 589 nm and the DOX concentration was calculated based on a standard curve. […] After centrifugation at 13,000× g for 10 min, the supernatant was collected and the intact percentage of the PDC was detected by HPLC [19].

SKBR-3 cells [2] = assay: Cellular uptake and lysosome colocalization by CLSM; type: cell-based, human
Description: To assess the uptake efficiency of the PDC in tumor cells, human breast cancer cell lines SKBR-3 (high expression of HER2) were used as positive cells, and the MCF-7 cell line was used as a negative control. […] Along with the incubation time, DOX escaped from the lysosomes, and brighter red fluorescence was detected in the nuclei after 8 h of incubation (Figure 4a). It has been observed that peptide conjugates in the acidic environment of endosomes/lysosomes undergo hydrolysis at the acid-response hydrazone linker, thereby releasing DOX into cells, which is in line with prior reports. […] The lysosomal escape ability was evaluated by the localization of the PDC and lysosomes in SKBR-3 cells (Figure 4c), evidenced by the separation of red (DOX) and green (LysoTracker) fluorescence.
Cultures of SKBR-3 and MCF-7 cells were established in DMEM medium supplemented with 10% fetal bovine serum, 100 U/mL penicillin, and 100 μg/mL streptomycin at 37 °C and 5% CO2. Approximately 1 × 10^5 cells/mL were seeded into culture dishes and incubated overnight. Subsequently, 0.5 mg/mL PDC was added and incubated for 2–8 h in conjunction with an equal amount of free DOX as a control. […] Finally, confocal fluorescence images were obtained using a Zeiss 710 system. […]

[3] = In vitro DOX release from the PDC (dialysis in PBS); type: physicochemical; conditions: fluorescence at 589 nm
Source text: (§1) Based on the specific acidic tumor microenvironment (pH5.4–7.0), an acid-responsive linker was designed to undergo acid hydrolysis after cellular uptake, releasing the drug into endosomes or lysosomes to achieve site-specific delivery. It is theoretically possible that a HPD with an acid-sensitive hydrazone bond can display a regulated release behavior when the external pH value is altered. As observed from the drug release profile in Figure 3a, the PDC remains structurally stable in PBS at a pH of 7.4, as only about 35% of DOX is released within 24 h. In contrast, when the pH of PBS is reduced to 5.8, there is an explosive release of DOX in acidic media due to the pH-sensitive hydrolysis of the […] bond between DOX and the EMCH linker. […] Figure 3b illustrates that the cytotoxicity of the PDC and free DOX on SKBR-3 cells augmented with prolonged incubation time. When the equivalent concentration was 1 μM, the viability of SKBR-3 cells in the PDC group was 26.3%. […] To determine if our novel conjugate could enhance the effect of DOX through PEGylation and HER2-receptor-mediated internalization, we tested the cytotoxic effect of the PDC on MCF-7 and SKBR-3 breast cancer cells.
To quantify the amount of DOX released from the PDC, 1 mg of the substance was dissolved in 2 mL of ultra-pure water and placed into a dialysis bag (MWCO 1000 Da). This bag was then transferred to a tube containing 10 mL of PBS solution with varying pH values (7.4 and 5.8). The tube was stirred at 37 °C in the dark and samples of the PBS solution were collected at different intervals. Subsequently, a new 10 mL of PBS was added to the tube after each sample. The samples were analyzed for released DOX concentration using a fluorescence spectrophotometer at 589 nm and the DOX concentration was calculated based on a standard curve. The PDC was incubated with human plasma (final peptide concentration of 50 μM) for 0, 2, 4, 8, 12, 24, and 48 h in order to assess the stability of the conjugate. Then, […] of the solution was mixed with […] of methanol to terminate enzymatic hydrolyses. After centrifugation at 13,000× g for 10 min, the supernatant was collected and the intact percentage of the PDC was detected by HPLC [19].

SKBR-3 cells [4] = assay: Cytotoxicity assay (CCK8 kit); type: cell-based, human; conditions: for IC50: 48 h incubation, 0 to 1 μM, CCK8, from dose response log curves
Source text: as §1
Cultures of SKBR-3 and MCF-7 cells were established in DMEM medium supplemented with 10% fetal bovine serum, 100 U/mL penicillin, and 100 μg/mL streptomycin at 37 °C and 5% CO2. Approximately 1 × 10^5 cells/mL were seeded into culture dishes and incubated overnight. Subsequently, 0.5 mg/mL PDC was added and incubated for 2–8 h in conjunction with an equal amount of free DOX as a control. After washing three times with PBS, Hoechst 33342 and LysoTracker Green DND-26 were added to stain the nucleus and lysosome for 15 min, followed by three additional washes with PBS. Finally, confocal fluorescence images were obtained using a Zeiss 710 system. SKBR-3 cells were seeded in a 96-well culture plate at a density of 5000 cells per well and incubated for 24 h. Afterwards, cytotoxicity investigations were conducted by incubating the cells with the PDC and free DOX (in concentrations from 0 to 1 μM) for 48 h. Then, the CCK8 kit was used to detect cell survival.

[5] = tested on: SKBR-3 xenografted (BALB/c nude) mice; assay: In vivo anti-tumor study; conditions: SKBR-3 xenograft, 5 mg/kg equivalent DOX, tail vein, five times every two days, n = 4, day 14
Description: (§2) In vivo anti-tumor studies were evaluated by using SKBR-3 xenografted (BALB/c nude) mice treated with the PDC, free DOX, or saline. […] Additionally, histological examination of the tumors was performed. […] A TUNEL assay indicated a greater number of apoptotic cells after treatments with the PDC group compared to the free DOX group and reduced the offtarget effects (Figure 5d).
In this study, a total of 12 female BALB/c mice (22–24 g) were used, and all animal experiments were conducted in compliance with the ethical guidelines approved by the ethics committee of Fujian Medical University. Approximately 2 × 10^6 SKBR-3 cells were injected subcutaneously in the right hind limb of the nude mice. Upon the tumor reaching a volume of around 100 mm^3, the mice were randomly allocated into three groups (n = 4) and administered through the tail vein with PBS, free DOX solution, and PDC solution (5 mg/kg equivalent DOX), respectively, five times every two days. Saline was used as a negative control. After each administration, the size and weight of the tumor were assessed. Subsequently, the mice were euthanized, and their tumor tissues and other major organs were dissected and preserved with 4% formaldehyde. […]

BALB/c nude mice = assay: In vivo safety: body weight and H&E staining of major organs; conditions: 5 mg/kg equivalent DOX i.v., five times every two days; for body weight change versus PBS group: n = 4; for H&E histology of major organs: compared with PBS group
Description: as §2
Good biocompatibility and the acceptable biosafety of a drug are essential for its biological application. […] The PDC had higher in vivo anti-tumor efficacy than DOX without apparent toxicities.
In this study, a total of 12 female BALB/c mice (22–24 g) were used, and all animal experiments were conducted in compliance with the ethical guidelines approved by the ethics committee of Fujian Medical University. Approximately 2 × 10^6 SKBR-3 cells were injected subcutaneously in the right hind limb of the nude mice. Upon the tumor reaching a volume of around 100 mm^3, the mice were randomly allocated into three groups (n = 4) and administered through the tail vein with PBS, free DOX solution, and PDC solution (5 mg/kg equivalent DOX), respectively, five times every two days. Saline was used as a negative control. After each administration, the size and weight of the tumor were assessed. Subsequently, the mice were euthanized, and their tumor tissues and other major organs were dissected and preserved with 4% formaldehyde. Paraffin sections were then produced, and the fixed paraffin-embedded tissues were sliced into 5 μm sections for hematoxylin and eosin (H&E) and TUNEL (terminal deoxynucleotidyl transferase dUTP nick-end labeling) analyses.

Row | Compound | half-life at 50 μM ([1]; 50 μM final peptide concentration, 0-48 h, methanol quench, intact PDC by HPLC, read-out: half-life of the conjugate (converted)) [h] | remaining at 48 h, 50 μM ([1]; 50 μM, 48 h incubation, HPLC, read-out: intact conjugate remaining at 48 h) [%] | uptake of the PDC in SKBR-3 versus MCF-7 cells (SKBR-3 cells [2]; CLSM, Figure S3, HER2 negative MCF-7) | cellular uptake relative to free DOX (SKBR-3 cells [2]; HER2-positive SKBR-3 cells) [times] | DOX released within 8 h, pH 5.8 ([3]; PBS pH 5.8, 37 °C, dialysis MWCO 1000 Da, 8 h) [%] | DOX released within 24 h, pH 5.8 ([3]; PBS pH 5.8, 37 °C, dialysis MWCO 1000 Da, 24 h) [%] | DOX released, pH 5.8, start of the rise ([3]; PBS pH 5.8, 37 °C, dialysis MWCO 1000 Da, early value, time not given) | DOX released within 24 h, pH 7.4 ([3]; PBS pH 7.4, 37 °C, dark, dialysis bag MWCO 1000 Da, 1 mg in 2 mL water against 10 mL PBS, 24 h) | cytotoxic effect on SKBR-3 versus MCF-7 breast cancer cells (SKBR-3 cells [4]; 48 h, Figure S4, HER2 high-expression SKBR-3 vs MCF-7) | IC50 of the PDC relative to free DOX (SKBR-3 cells [4]; SKBR-3 cells, 48 h) | IC50 (SKBR-3 cells [4]; SKBR-3 cells) [nM] | viability of SKBR-3 cells (SKBR-3 cells [4]; equivalent concentration 1 μM, 48 h, CCK8) [%] | reduction of tumor growth on day 14 post treatment [5] [%] | body weight change versus PBS group (BALB/c nude mice) | H&E histology of major organs (BALB/c nude mice)
1 | COc1cccc2c1C(=O)c1c(O)c3c(c(O)c1C2=O)C[C@@](O)(C(CO)=NNC(=O)CCCCCN1C(=O)CC(SC[C@H](NC(=O)CCOCCOCCOCCOCCNC(=O)[C@H](CCCCNC(=O)CCOCCOCCOCCOCCNC(=O)[C@H](CCCCN)NC(=O)[C@H](CC(C)C)NC(=O)[C@H](CCCNC(=N)N)NC(=O)[C@H](CC(C)C)NC(=O)[C@H](CCC(=O)O)NC(=O)[C@H](Cc2c[nH]c4ccccc24)NC(=O)[C@H](CC(N)=O)NC(=O)[C@@H](N)CCCNC(=N)N)NC(=O)CCOCCOCCOCCOCCNC(=O)[C@H](CCCCN)NC(=O)[C@H](CC(C)C)NC(=O)[C@H](CCCNC(=N)N)NC(=O)[C@H](CC(C)C)NC(=O)[C@H](CCC(=O)O)NC(=O)[C@H](Cc2c[nH]c4ccccc24)NC(=O)[C@H](CC(N)=O)NC(=O)[C@@H](N)CCCNC(=N)N)C(=O)O)C1=O)C[C@@H]3O[C@H]1C[C@H](N)[C@H](O)[C@H](C)O1 (stereo partly shown) [PDC] | ~24 | ~15 | higher uptake rate | 2.9 | 78 | ~90 | around 20% | about 35% | significantly more cytotoxic in the HER2 high-expression cell lines | three times less | 143 | 26.3 | 51.1 ± 3.1 | no noteworthy distinction in body weight | no morphological aberrations in organ tissues
2 | COc1cccc2c1C(=O)c1c(O)c3c(c(O)c1C2=O)C[C@@](O)(C(=O)CO)C[C@@H]3O[C@H]1C[C@H](N)[C@H](O)[C@H](C)O1.Cl [free DOX, doxorubicin hydrochloride, reference compound] | – | – | – | – | – | – | – | – | – | – | 410 | – | 23.13 ± 2.4 | significantly decreased | clear cardiotoxicities
